Data as given in US20250000819A1, “Anti-hypoxic/anoxic injury use of a magnolol and/or honokiol aromatic ring amino-substituted derivative, and a pharmaceutical composition” (BEIJING HONGHUI MEDITECH CO., LTD., priority 2021, published 2025).

How the values were obtained:
Format in all cases: in vivo, rat
[1] = test system: SD male rats, hypoxia (the oxygen content was 11%) treatment; test: Blood gas analysis of femoral artery blood in hypoxia-treated rats
Description: 2. Animal model: SPF-grade SD male rats, 220-240 g of the weight, and hypoxia (the oxygen content was 11%) treatment. 3. Experimental grouping: a hypoxia treatment control group, there were 4 rats in each group; and a hypoxia treatment administration group, there were 4 rats in each group. 4. Administration mode: before the hypoxia treatment, a single intravenous injection was administered to each rat in the hypoxia treatment administration group. 5. […] 2. Animal model: SPF-grade SD male rats, 220-240 g of the weight, and hypoxia (the oxygen content was 11%) treatment. 3. Experimental grouping: a hypoxia treatment control group, there were 4 rats in each group; and a hypoxia treatment administration group, there were 4 rats in each group. 4. Administration mode: before the hypoxia treatment, a single intravenous injection was administered to each rat in the hypoxia treatment administration group. 5. […] 2. Animal model: SPF-grade SD male rats, 220-240 g of the weight, and hypoxia (the oxygen content was 11%) treatment. 3. Experimental grouping: a hypoxia treatment control group, there were 4 rats in each group; and a hypoxia treatment administration group, there were 4 rats in each group. 4. Administration mode: single gavage administration of each rat in the hypoxic treatment group prior to hypoxic treatment. 5. […] 2. Animal model: SPF-grade SD male rats, 220-240 g of the weight, and hypoxia (the oxygen content was 11%) treatment. 3. Experimental grouping: a hypoxia treatment control group, there were 4 rats in each group; and a hypoxia treatment administration group, there were 4 rats in each group. 4. Administration mode: before the hypoxia treatment, a single intravenous injection was administered to each rat in the hypoxia treatment administration group. 5. […] 2. Animal model: SPF-grade SD male rats, 220-240 g of the weight, and hypoxia (the oxygen content was 11%) treatment. 3. Experimental grouping: a hypoxia treatment control group, there were 4 rats in each group; and a hypoxia treatment administration group, there were 4 rats in each group. 4. Administration mode: before the hypoxia treatment, a single intravenous injection was administered to each rat in the hypoxia treatment administration group. 5. […]

[2] = test system: SD male rats, hypoxia (the oxygen content was 11%) treatment; test: Respiratory rate evaluated during blood collection in hypoxia-treated rats; details: p<0.05
Description: 2. Animal model: SPF-grade SD male rats, 220-240 g of the weight, and hypoxia (the oxygen content was 11%) treatment. 4. Administration mode: before the hypoxia treatment, a single intravenous injection was administered to each rat in the hypoxia treatment administration group. 6. Respiratory rate: the rat respiratory rate was evaluated during blood collection. 2. Animal model: SPF-grade SD male rats, 220-240 g of the weight, and hypoxia (the oxygen content was 11%) treatment. 4. Administration mode: before the hypoxia treatment, a single intravenous injection was administered to each rat in the hypoxia treatment administration group. 6. Respiratory rate: the rat respiratory rate was evaluated during blood collection. 2. Animal model: SPF-grade SD male rats, 220-240 g of the weight, and hypoxia (the oxygen content was 11%) treatment. 4. Administration mode: single gavage administration of each rat in the hypoxic treatment group prior to hypoxic treatment. 6. Respiratory rate: the rat respiratory rate was evaluated during blood collection. 2. Animal model: SPF-grade SD male rats, 220-240 g of the weight, and hypoxia (the oxygen content was 11%) treatment. 4. Administration mode: before the hypoxia treatment, a single intravenous injection was administered to each rat in the hypoxia treatment administration group. 2. Animal model: SPF-grade SD male rats, 220-240 g of the weight, and hypoxia (the oxygen content was 11%) treatment. 4. Administration mode: before the hypoxia treatment, a single intravenous injection was administered to each rat in the hypoxia treatment administration group. 6. Respiratory rate: the rat respiratory rate was evaluated during blood collection.

[3] = test system: lung tissues of SD rats, hypoxia (the oxygen content was 11%) treatment; test: H&E staining / pathological analysis of lung tissue paraffin sections after hypoxia treatment; details: 1 mg/kg single intravenous injection, after 24 h of hypoxia treatment
Description: 2. Animal model: SPF-grade SD male rats, 220-240 g of the weight, and hypoxia (the oxygen content was 11%) treatment. 4. Administration mode: before the hypoxia treatment, a single intravenous injection was administered to each rat in the hypoxia treatment administration group. 7. Hematoxylin-eosin (H&E) staining: Lung tissues of the hypoxia treatment (24 h) control group and the hypoxia treatment (24 h) administration group (dose: 1 mg/kg) were taken for paraffin section preparation, staining, and case analysis. 1) Paraffin sections were dewaxed to water: the sections were sequentially placed in xylene I for 20 min, xylene II for 20 min, anhydrous ethanol I for 5 min, anhydrous ethanol II for 5 min, and 75% alcohol for 5 min, and finally washed with tap water. 2) Hematoxylin staining: the sections were placed in hematoxylin staining solution and stained for 3-5 min, then washed with the tap water, and differentiated with differentiation solution, then washed with the tap water. It returned to blue by blue returning solution, and finally it was washed with running water. 3) Eosin staining: the sections were sequentially dehydrated with 85% and 95% of gradient alcohol for 5 min respectively, and placed in eosin staining solution and stained for 5 min. […]

C=CCc1cc(N)c(O)c(-c2ccc(O)c(CC=C)c2)c1 [Compound 1, 3′, 5-diallyl-3-amino-[1,1′-biphenyl]-2,4′-diol] was tested, and the “blood oxygen partial pressure (PO2) vs control group” value ([1]; 0.58 mg/kg single intravenous injection before hypoxia, after 24 h of hypoxia treatment, p=0.0012) was “significantly higher than those of the control group”, the “blood oxygen saturation (SO2) vs control group” value ([1]; 0.58 mg/kg single intravenous injection before hypoxia, after 24 h of hypoxia treatment, p=0.019) was “significantly higher than those of the control group” and the “respiratory rate (RR) vs control group” value ([2]; 0.58 mg/kg single intravenous injection, after 24 h of hypoxia treatment) was “lower than that of the control group, and the different was significant”.
For C=CCc1cc(NC(=O)[C@@H](N)CCCCN)c(O)c(-c2ccc(O)c(CC=C)c2)c1.Cl.Cl [Compound 2, (S)-2,6-diamino-N-(3′,5-diallyl-2,4′-dihydroxy-[1,1′-biphenyl]-3-yl) hexanamide dihydrochloride], the “blood oxygen saturation (SO2) vs control group” value ([1]; 0.25 mg/kg single intravenous injection, after 1 h of hypoxia treatment, p=0.023) was “higher than that of the control group, and the difference was significant”, the “blood oxygen partial pressure (PO2) vs control group” value ([1]; 0.25 mg/kg single intravenous injection, after 1 h of hypoxia treatment, p=0.059) was “higher than that of the control group, but the difference was not significant” and the “blood oxygen saturation (SO2) vs control group” value ([1]; 0.25 mg/kg single intravenous injection, after 6 h of hypoxia treatment, p=0.015) was “higher than those of the control group, and the difference was significant”. For the same compound, the “blood oxygen partial pressure (PO2) vs control group” value ([1]; 0.25 mg/kg single intravenous injection, after 6 h of hypoxia treatment, p=0.018) was “higher than those of the control group, and the difference was significant”, the “blood oxygen saturation (SO2) vs control group” value ([1]; 1 mg/kg single intravenous injection, after 6 h of hypoxia treatment, p=0.0012) was “higher than that of the control group, and the difference was significant” and the “blood oxygen partial pressure (PO2) vs control group” value ([1]; 1 mg/kg single intravenous injection, after 6 h of hypoxia treatment, p=0.003) was “higher than that of the control group, and the difference was significant”. The “blood oxygen saturation (SO2) vs control group” value ([1]; 1 mg/kg single intravenous injection, after 24 h of hypoxia treatment, p=0.001) was “higher than those of the control group, and the difference was significant”, the “blood oxygen partial pressure (PO2) vs control group” value ([1]; 1 mg/kg single intravenous injection, after 24 h of hypoxia treatment, p=0.0012) was “higher than those of the control group, and the difference was significant” and the “blood oxygen saturation (SO2) vs control group” value ([1]; 40 mg/kg single gavage (intragastric) administration, after 24 h of hypoxia treatment, p=0.016) was “higher than those of the control group, and the difference was significant”. For the same compound, the “blood oxygen partial pressure (PO2) vs control group” value ([1]; 40 mg/kg single gavage (intragastric) administration, after 24 h of hypoxia treatment, p=0.036) was “higher than those of the control group, and the difference was significant”, the “respiratory rate (RR) vs control group” value ([2]; 1 mg/kg single intravenous injection, after 6 h of hypoxia treatment) was “lower than that of the control group, and the difference was significant” and the “respiratory rate (RR) vs control group” value ([2]; 1 mg/kg single intravenous injection, after 24 h of hypoxia treatment) was “lower than that of the control group, and the difference was significant”. The “respiratory rate (RR) vs control group” value ([2]; 40 mg/kg single gavage (intragastric) administration, after 24 h of hypoxia treatment) was “lower than that of the control group, and the difference was significant” and the “lung tissue injuries (H&E pathological analysis) vs control group” value [3] was “able to alleviate the tissue injuries caused by hypoxia (anoxia)”.
In the case of C=CCc1cc(NC(=O)[C@@H](N)CCSC)c(O)c(-c2ccc(O)c(CC=C)c2)c1.Cl [Compound 3, (S)-2-amino-N-(3′,5-diallyl-2,4′-dihydroxy-[1,1′-biphenyl]-3-yl)-4-(methylthio) butanamide hydrochloride], the “blood oxygen saturation (SO2) vs control group” value ([1]; 0.93 mg/kg single intravenous injection, after 24 h of hypoxia treatment, p=0.06) is reported as “higher than that of the control group” and the “respiratory rate (RR) vs control group” value ([2]; 0.93 mg/kg single intravenous injection, after 24 h of hypoxia treatment) is reported as “lower than that of the control group, and the difference was significant”.
In the case of C=CCc1cc(NC(C)=O)c(O)c(-c2ccc(O)c(CC=C)c2)c1 [Compound 4, N-(3′,5-diallyl-2,4′-dihydroxy-[1,1′-biphenyl]-3-yl) acetamide], the “blood oxygen saturation (SO2) vs control group” value ([1]; 0.67 mg/kg single intravenous injection, after 24 h of hypoxia treatment, p=0.0023) is reported as “higher than those of the control group”, the “blood oxygen partial pressure (PO2) vs control group” value ([1]; 0.67 mg/kg single intravenous injection, after 24 h of hypoxia treatment, p=0.023) is reported as “higher than those of the control group” and the “respiratory rate (RR) vs control group” value ([2]; 0.67 mg/kg single intravenous injection, after 24 h of hypoxia treatment) is reported as “lower than that of the control group, and the difference was significant”.
